In the supplement of paper PMC10307832:

Legend:
Assay in all cases: relative viability (nuclei count vs DMSO), 5 days (fraction); higher = more cells survive
Alisertib + Navitoclax = compound: COc1cc(Nc2ncc3c(n2)-c2ccc(Cl)cc2C(c2c(F)cccc2OC)=NC3)ccc1C(=O)O [Alisertib] + CC1(C)CCC(c2ccc(Cl)cc2)=C(CN2CCN(c3ccc(C(=O)NS(=O)(=O)c4ccc(N[C@H](CCN5CCOCC5)CSc5ccccc5)c(S(=O)(=O)C(F)(F)F)c4)cc3)CC2)C1 [Navitoclax] (partner 0.5 µM)
Outline: (§1)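 Values are medians from duplicate plates. Each reflects relative viability, defined as the nuclei count of treated wells over that of vehicle wells. Lung cancer cell lines in 1536-well plates were pin-tool dosed one day after seeding with one drug alone or with a fixed anchor-drug dose plus five library-drug doses (not always all listed) in √10 steps, then fixed, stained and imaged at 4× after 5 days.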

Alisertib + Tozasertib = compound: COc1cc(Nc2ncc3c(n2)-c2ccc(Cl)cc2C(c2c(F)cccc2OC)=NC3)ccc1C(=O)O [Alisertib] + Cc1cc(Nc2cc(N3CCN(C)CC3)nc(Sc3ccc(NC(=O)C4CC4)cc3)n2)n[nH]1 [Tozasertib] (partner 0.1 µM)
Outline: as §1

Alisertib + Vorinostat = compound: COc1cc(Nc2ncc3c(n2)-c2ccc(Cl)cc2C(c2c(F)cccc2OC)=NC3)ccc1C(=O)O [Alisertib] + O=C(CCCCCCC(=O)Nc1ccccc1)NO [Vorinostat] (partner 1 µM)
Outline: as §1

Alisertib + Crizotinib = compound: COc1cc(Nc2ncc3c(n2)-c2ccc(Cl)cc2C(c2c(F)cccc2OC)=NC3)ccc1C(=O)O [Alisertib] + C[C@@H](Oc1cc(-c2cnn(C3CCNCC3)c2)cnc1N)c1c(Cl)ccc(F)c1Cl [Crizotinib] (partner 1 µM)
Outline: as §1

Cell Line | relative viability (Alisertib + Navitoclax; first compound 0.005 µM) | relative viability (Alisertib + Navitoclax; first compound 0.01581 µM) | relative viability (Alisertib + Navitoclax; first compound 0.05 µM) | relative viability (Alisertib + Navitoclax; first compound 0.1581 µM) | relative viability (Alisertib + Navitoclax; first compound 0.5 µM) | relative viability (Alisertib + Tozasertib; first compound 0.005 µM) | relative viability (Alisertib + Tozasertib; first compound 0.01581 µM) | relative viability (Alisertib + Tozasertib; first compound 0.05 µM) | relative viability (Alisertib + Tozasertib; first compound 0.1581 µM) | relative viability (Alisertib + Tozasertib; first compound 0.5 µM) | relative viability (Alisertib + Vorinostat; first compound 0.005 µM) | relative viability (Alisertib + Vorinostat; first compound 0.01581 µM) | relative viability (Alisertib + Vorinostat; first compound 0.05 µM) | relative viability (Alisertib + Vorinostat; first compound 0.1581 µM) | relative viability (Alisertib + Vorinostat; first compound 0.5 µM) | relative viability (Alisertib + Crizotinib; first compound 0.005 µM) | relative viability (Alisertib + Crizotinib; first compound 0.01581 µM) | relative viability (Alisertib + Crizotinib; first compound 0.05 µM) | relative viability (Alisertib + Crizotinib; first compound 0.1581 µM) | relative viability (Alisertib + Crizotinib; first compound 0.5 µM)
NCI-H322M | 1.16 | 1.3 | 1.13 | 0.576 | 0.35 | 0.394 | 0.491 | 0.506 | 0.453 | 0.509 | 0.806 | 0.864 | 0.772 | 0.502 | 0.514 | 0.809 | 0.777 | 0.431 | 0.498 | 0.313
NCI-H1666 | 0.94 | 0.779 | 0.435 | 0.281 | 0.291 | 0.625 | 0.412 | 0.365 | 0.391 | 0.355 | 1.01 | 0.995 | 0.846 | 0.617 | 0.555 | 0.934 | 0.729 | 0.474 | 0.349 | 0.363
NCI-H2087 | 0.868 | 0.742 | 0.164 | 0.153 | 0.153 | 0.204 | 0.249 | 0.126 | 0.158 | 0.144 | 0.758 | 0.667 | 0.173 | 0.106 | 0.133 | 0.893 | 0.609 | 0.176 | 0.225 | 0.209
LU99A | 0.846 | 0.634 | 0.206 | 0.211 | 0.123 | 0.276 | 0.272 | 0.219 | 0.216 | 0.203 | 0.467 | 0.428 | 0.177 | 0.16 | 0.187 | 0.513 | 0.451 | 0.245 | 0.217 | 0.182
HCC-366 | 0.976 | 1.04 | 0.094 | 0.0103 | 0.019 | 0.125 | 0.0689 | 0.0539 | 0.0439 | 0.0387 | 0.171 | 0.0448 | 0.0208 | 0.0312 | 0.0381 | 0.686 | 0.456 | 0.0307 | 0.0254 | 0.0216
EKVX | 0.924 | 0.837 | 0.589 | 0.162 | 0.15 | 0.379 | 0.305 | 0.205 | 0.141 | 0.151 | 0.684 | 0.551 | 0.285 | 0.263 | 0.319 | 0.796 | 0.807 | 0.313 | 0.182 | 0.219
NCI-H1755 | 0.928 | 0.99 | 0.682 | 0.356 | 0.181 | 0.6 | 0.569 | 0.422 | 0.386 | 0.311 | 0.768 | 0.776 | 0.433 | 0.386 | 0.329 | 0.853 | 0.73 | 0.415 | 0.366 | 0.294
LC-2-ad | 0.328 | 0.159 | 0.0861 | 0.114 | 0.0846 | 0.441 | 0.367 | 0.366 | 0.338 | 0.323 | 0.454 | 0.313 | 0.24 | 0.177 | 0.161 | 0.369 | 0.378 | 0.266 | 0.353 | 0.202
HCC-827 | 1.01 | 1 | 0.545 | 0.324 | 0.249 | 0.378 | 0.31 | 0.258 | 0.273 | 0.278 | 0.779 | 0.717 | 0.753 | 0.29 | 0.274 | 0.898 | 0.802 | 0.374 | 0.395 | 0.254
HCC-78 | 0.681 | 0.514 | 0.176 | 0.131 | 0.131 | 0.446 | 0.273 | 0.281 | 0.245 | 0.211 | 0.369 | 0.281 | 0.234 | 0.241 | 0.217 | 0.358 | 0.291 | 0.205 | 0.153 | 0.205
NCI-H2085 | 1.15 | 1.03 | 0.401 | 0.278 | 0.247 | 0.723 | 0.669 | 0.526 | 0.476 | 0.394 | 0.73 | 0.771 | 0.431 | 0.441 | 0.448 | 0.757 | 0.693 | 0.33 | 0.391 | 0.388
PC-3 [JPC-3] | 0.757 | 0.79 | 0.401 | 0.306 | 0.281 | 0.893 | 0.814 | 0.548 | 0.551 | 0.387 | 0.596 | 0.68 | 0.769 | 0.367 | 0.354 | 0.955 | 0.981 | 0.646 | 0.474 | 0.386
A-427 | 0.897 | 0.907 | 0.26 | 0.167 | 0.158 | 0.211 | 0.166 | 0.174 | 0.186 | 0.135 | 0.603 | 0.41 | 0.313 | 0.27 | 0.262 | 0.903 | 0.839 | 0.136 | 0.146 | 0.174
H3255 | 0.484 | 0.415 | 0.355 | 0.0997 | 0.0929 | 0.737 | 0.503 | 0.296 | 0.137 | 0.227 | 0.8 | 0.822 | 0.656 | 0.337 | 0.264 | 0.909 | 0.765 | 0.662 | 0.205 | 0.174
HCC-44 | 1.04 | 0.949 | 0.509 | 0.412 | 0.14 | 0.929 | 0.59 | 0.296 | 0.349 | 0.196 | 1.05 | 0.784 | 0.397 | 0.387 | 0.339 | 0.872 | 0.769 | 0.388 | 0.219 | 0.176
NCI-H1734 | 0.851 | 0.782 | 0.366 | 0.164 | 0.0931 | 0.262 | 0.231 | 0.22 | 0.195 | 0.188 | 0.604 | 0.519 | 0.302 | 0.221 | 0.189 | 0.669 | 0.523 | 0.357 | 0.227 | 0.155
